The results in this text go back to patent US5587373A, “2-acyloxycephem derivatives” (Farmitalia Carlo Erba S.r.l., priority 1993, dated 1996).

In this test the target is T1, human leucocyte elastase (HLE) (Homo sapiens, UniProt P08246).
T1 construct: purchased Calbiochem
T1 sequence (P08246 30-267): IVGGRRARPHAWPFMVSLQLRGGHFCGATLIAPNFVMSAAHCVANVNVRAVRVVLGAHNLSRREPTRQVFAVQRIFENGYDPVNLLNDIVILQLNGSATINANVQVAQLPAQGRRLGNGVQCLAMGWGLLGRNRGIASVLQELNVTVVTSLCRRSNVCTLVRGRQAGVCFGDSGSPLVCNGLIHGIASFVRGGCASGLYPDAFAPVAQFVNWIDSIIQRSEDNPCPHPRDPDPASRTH
As to the kind of experiment: HLE (human leucocyte elastase) inhibition kinetics. It counts as biochemical. As to conditions: 37° C., pH 7.4; for kinact/KI: rate of formation of the HLE-inhibitor complex, read-out: "Efficacy" K5 /Ki. An excerpt:
Vs =steady state rate Vz =zero time rate Vo =rate at [I]=0 Km =Michaelis constant for the enzyme substrate pair (independently determined under the same experimental conditions). Full details of the Experimental Protocol are reported in […] et al., Eur. J. Med. Chem. 1992, 27, 875-890.

Where [1] appears, read: Table 2, apparent dissociation constant of HLE-inhibitor complex at steady rate, read-out: Potency Ki^SS.
Setting [2] is: Table 3, * outside determination limits.
The mark [3] stands for this setting: Table 3, * outside determination limits, read-out: "Potency" Ki ^33.

pKi: −log10 of the molar value. Like-named read-outs stand apart in the source and are kept apart here. Bounds are passed on as bounds.

Broadly, the pKi is the negative decadic logarithm of the Ki, by convention in mol/L.

Take `CO[C@H]1C(=O)N2C(C(=O)C(C)(C)C)=C(C)C(OC(=O)c3ccccc3)S(=O)(=O)[C@H]12` (stereo partly drawn) [Compound 2, 2-Benzoyloxy-4-tert-butylcarbonyl-7α-methoxy-3-methyl-3-cephem 1,1-dioxide]: the pKi under setting [1] is > 8.70.
Regarding `CO[C@H]1C(=O)N2C(C(=O)C(C)(C)C)=C(C)C(OC(=O)c3ccc4ccccc4c3)S(=O)(=O)[C@H]12` (stereo partly drawn) [Compound 11], the “"Efficacy" K5 /K1” value under setting [2] was < 2 M⁻¹ s⁻¹.
The same measure, in the same setting: as for `CO[C@H]1C(=O)N2C(C(=O)C(C)(C)C)=C(CSc3nnnn3C)C(OC(=O)c3ccccc3)S(=O)(=O)[C@H]12` (stereo partly drawn) [Compound 19, 2-Benzoyloxy-4-tert-butylcarbonyl-7α-methoxy-3-(1-methyl-1,2,3,4-tetrazol-5-yl)thiomethyl-3-cephem 1,1-dioxide], the figure is < 2 M⁻¹ s⁻¹; as for `CO[C@H]1C(=O)N2C(C(=O)c3ccccc3)=C(C)C(OC(=O)c3ccccc3)S(=O)(=O)[C@H]12` (stereo partly drawn) [Compound 24, 2-Benzoyloxy-7α-methoxy-3-methyl-4-phenylcarbonyl-3-cephem 1,1-dioxide], 8 M⁻¹ s⁻¹.
On to `CO[C@H]1C(=O)N2C(C(=O)c3ccccc3)=C(C)C(OC(=O)c3ccc(C(=O)O)cc3)S(=O)(=O)[C@H]12` (stereo partly drawn) [Compound 25, 4-Benzoyl-2-(4-carboxybenzoyl)oxy-7α-methoxy-3-methyl-3-cephem 1,1-dioxide], for which the “"Efficacy" K5 /K1” value under setting [2] turned out to be 29 M⁻¹ s⁻¹. The pKi under setting [3] is 4.47.
In the same order, the values of `CO[C@H]1C(=O)N2C(C(=O)C(C)(C)C)=C(C)C(OC(=O)c3ccc(CSc4nc(=O)c(O)nn4C)cc3)S(=O)(=O)[C@H]12` (stereo partly drawn) [Compound 38, 4-tert-Butylcarbonyl-2-{4-[(2,5-dihydro-6-hydroxy-2-methyl-5-oxo-1,2,4-triazin-3-yl)thiomethyl]benzoyloxy}-7α-methoxy-3-methyl-3-cephem 1,1-dioxide] are < 2 M⁻¹ s⁻¹ and 3.15.
In the same order, the values of `CO[C@H]1C(=O)N2C(C(=O)C(C)(C)C)=C(C)C(OC(=O)c3ccc(C(=O)c4ccccc4)cc3)S(=O)(=O)[C@H]12` (stereo partly drawn) [Compound 83, 2-[4-(Benzoyl)benzoyloxy]-4-tert-butylcarbonyl-7α-methoxy-3-methyl-3-cephem 1,1-dioxide] are 2 M⁻¹ s⁻¹ and 3.30.
Turning to `CCCCC(CC)C(=O)OC1C(C)=C(C(=O)C(C)(C)C)N2C(=O)[C@H](OC)[C@H]2S1(=O)=O` (stereo partly drawn) [Compound 96, 4-tert-Butylcarbonyl-2-(2-ethylhexanoyl)oxy-7α-methoxy-3-methyl-3-cephem 1,1-dioxide], the “"Efficacy" K5 /K1” value under setting [2] was < 2 M⁻¹ s⁻¹.
Consider `CO[C@H]1C(=O)N2C(C(=O)C(C)(C)C)=C(C)CS(=O)(=O)[C@H]12` [FCE 25500, reference compound], for which the pKi under setting [1] is 5.89. Moreover, the kinact/KI (Table 2) was determined as 60 M⁻¹ s⁻¹.
Regarding `CO[C@H]1C(=O)N2C(C(=O)N3CCCC3)=C(CSc3nc(=O)c(O)nn3C)CS(=O)(=O)[C@H]12` [L-659,286, reference compound], the pKi under setting [1] was 7.12. Further, under “Table 2”, the kinact/KI is 9200 M⁻¹ s⁻¹.
